Patent publication US20220110847A1, “USE OF COOLING MATERIALS FOR THE REDUCTION OR INHIBITION OF SALTINESS IN ORALLY ADMINISTERED, IMBIBED OR INGESTED CONSUMER PRODUCTS” (TAKASAGO INTERNATIONAL CORPORATION, priority 2019, published 2022)

Test: Saltiness rating of toothpaste samples by an expert panel
Assay type: in vivo
Conditions: for perceived salty taste compared with both the Control and the other tested cooling materials: cooling material added to commercial toothpaste with approximately 50% sodium bicarbonate, expert panel; for Average RATING (saltiness): saltiness scale of 1 (less salty) to 7 (most salty), 7 evaluators, cooling material at 0.2 % (table) in commercial toothpaste with approximately 50% by weight sodium bicarbonate, Control 6.43
Method: A sample of a commercially available toothpaste containing approximately 50% by weight of sodium bicarbonate was used as a Control. […] All of the toothpaste samples, including the Control, were evaluated by an expert panel comprised of 4 Flavorist(s), 2 Flavor Lab Managers, and 1 Flavor Lab Technician. Each sample was assigned a number by each evaluator to indicate saltiness, using a saltiness scale of 1(less salty) to 7(most salty).

Row | Compound | perceived salty taste compared with both the Control and the other tested cooling materials | Average RATING (saltiness)
1 | CC(=O)C1CCC(C)CC1O (centres unmarked) [1-(2-hydroxy-4-methylcyclohexyl)-ethanone] | less salty taste | 2.43
2 | C=C(C)[C@@H]1CC[C@@H](C)C[C@H]1O [1-isopulegol, reference compound] | – | 6.29
3 | CNC(=O)C(C)(C(C)C)C(C)C [2-isopropyl-N,2,3-trimethylbutyramide, reference compound] | – | 6
4 | CC(C)[C@@H]1CC[C@@H](C)C[C@H]1OCC(O)CO (stereo partly drawn) [3-L-menthoxypropan-1,2-diol] | less salty taste | 3.00
5 | CC(O)CC(=O)O[C@@H]1C[C@H](C)CC[C@H]1C(C)C (stereo partly drawn) [L-menthyl-3-hydroxybutanoate] | less salty taste | 3.86
6 | CC1CCC(C(C)C)C(OC(=O)C(C)O)C1 (centres unmarked) [Menthyl Lactate, reference compound] | – | 6.43
7 | COc1ccc(NC(=O)C2CC(C)CCC2C(C)C)cc1 (centres unmarked) [N-(4-methoxyphenyl)-p-menthanecarboxamide] | less salty taste | 5.57
8 | CCOC(=O)CNC(=O)C1CC(C)CCC1C(C)C (centres unmarked) [N-[(ethoxycarbonyl)methyl)-p-menthane-3-carboxamide, reference compound] | – | 6.43
9 | CCNC(=O)C1CC(C)CCC1C(C)C (centres unmarked) [N-ethyl-5-methyl-2-propan-2-ylcyclohexane-1-carboxamide, reference compound] | – | 6.57
10 | CC1CCC(C(C)C)C(OCCO)C1 (centres unmarked) [hydroxyethyl-menthyl ether] | less salty taste | 5.57
11 | CC1CCC(C(C)(C)O)C(O)C1 (centres unmarked) [p-menthane-3,8-diol] | less salty taste | 5.86
